How the values were obtained:
[1] = tested on: CUMS mice; assay: Novelty suppressed feeding test (NSFT) in CUMS mice; format: in vivo, mouse; details: 10 mg/kg, i.p., 2 weeks
Description: (§1) C57BL/6 adult (6–8 weeks, body weight, 18–22 g) male mice were maintained and handled in a standard condition at the Experimental Animal Center of Southern Medical University (Guangzhou, China). Animal use was approved by the Animal Use and Care Committee of Southern Medical University (approved code: SMUL2021177, approved date: 12 December 2021). The CUMS procedure was carried out according to a protocol described previously. Except for those in the control group, mice were randomly exposed to two mild unpredictable stressors per day for 3 weeks. The stressors included water deprivation, restraint, tilted cage, wet/no bedding, rotation, peppermint, noise, and inverted light off/on. Mice in the control group were group housed without any stressors throughout the procedure. […] NSFT was performed after 16 h food deprivation, as described previously. The mouse was placed in an open field (24 × 40 × 14 cm), where a new chow was put in the center, and the latency time to bite food was counted over 10 min. Home cage feeding within a 20 min period was measured after the test. FST was carried out according to a protocol described previously. The mouse was placed into a beaker (Bomex, Beijing, China) with a height of 18 cm filled with water (22 ± 1 °C) for 6 min. The immobile time was measured during minutes 2–6. TST was performed according to a previous description. The mouse was suspended from a hook that hung from a suspension bar by placing a piece of adhesive tape on its tail about 1 cm away from the tip. The immobile time during minutes 2–6 was measured.

[2] = tested on: CUMS mice; assay: Forced swim test (FST) in CUMS mice; format: in vivo, mouse; details: 10 mg/kg, i.p., 2 weeks
Description: as §1

[3] = tested on: CUMS mice; assay: Tail suspension test (TST) in CUMS mice; format: in vivo, mouse; details: 10 mg/kg, i.p., 2 weeks
Description: as §1

[4] = tested on: CUMS mice; assay: Home cage food consumption after NSFT; format: in vivo, mouse; details: all tested dosages, in comparison with the control group
Description: Figure 6 Animal behavioral tests. (A) Schematic illustration of animal behavioral test timeline. Mice were exposed to CUMS for 3 weeks, as described in Section 4. […] For the CUMS group, saline was given instead of drugs. NSFT was performed after 16–18 h food deprivation, followed by FST and TST. (B) NSFT. The latency time to food in NSFT was counted. (C) Home cage food consumption. Food consumed by individual mice in the home cage (g) within a 20 min period was measured after NSFT. (D) FST. The immobility time during a 2 to 6 min period in FST was measured. (E) TST. The immobility time during 2 to 6 min was counted. n = 8–10 mice/group. Bars represent the mean ± SEM. * p < 0.05 compared with the control or CUMS group, respectively, by one-way ANOVA followed by post hoc tests. ns, not significant.
NSFT was performed after 16 h food deprivation, as described previously. The mouse was placed in an open field (24 × 40 × 14 cm), where a new chow was put in the center, and the latency time to bite food was counted over 10 min. Home cage feeding within a 20 min period was measured after the test. FST was carried out according to a protocol described previously. The mouse was placed into a beaker (Bomex, Beijing, China) with a height of 18 cm filled with water (22 ± 1 °C) for 6 min. The immobile time was measured during minutes 2–6. […] The immobile time during minutes 2–6 was measured.

[5] = tested on: c-Fos; assay: c-Fos immunohistochemistry in mPFC of CUMS mice; format: in vivo, mouse; details: 10 mg/kg i.p.
Description: Figure 7 SYR effects on the expression of c-Fos and synaptic proteins in mPFC. (A) Representative immunohistochemical images of c-Fos expression in mPFC under the indicated treatments. Immunohistochemistry of c-Fos was performed with mPFC slices as described in Section 4. The slices were re-probed with anti-DAPI antibody. Immunofluorescence images for c-Fos (green) and DAPI (blue) were acquired by confocal microscopy. (B) Quantitative analysis for c-Fos expression in mPFC with various treatments. Protein expression is expressed as a percentage of c-Fos fluorescence measured in the control group. Bars represent the mean ± SEM (n = 4). * p < 0.05, ** p < 0.01 compared with the control or CUMS group by one-way ANOVA followed by post hoc tests, respectively. (C) Representative immunoblots of the synaptic proteins BDNF, PSD-95, GluA1, and vGluT1 with various treatments. (D–G) Quantification of the expression of the synaptic proteins BDNF (D), PSD-95 (E), GluA1 (F), and vGluT1 (G). The expression level is expressed as a percentage of the integrated density obtained from the control group. Bars represent the mean ± SEM (n = 4). * p < 0.05, ** p < 0.01 by one-way ANOVA followed by post hoc tests.
Mouse mPFC and hippocampal slices were prepared as previously described. […]

[6] = tested on: c-Fos; assay: c-Fos immunohistochemistry in hippocampus of CUMS mice; format: in vivo, mouse; details: same dosage as fluoxetine (10 mg/kg i.p.)
From the text: (§2) Figure 8 SYR effects on the expression of c-Fos and synaptic proteins in the hippocampus. (A) Representative immunohistochemical images of c-Fos expression in the hippocampus with the indicated treatments. (B) Quantitative analysis for hippocampal c-Fos expression with various treatments. Protein expression level is expressed as a percentage of c-Fos fluorescence measured in the control group. Bars represent the mean ± SEM (n = 4). ** p < 0.01 compared with the control or CUMS group by one-way ANOVA followed by post hoc tests. (C) Representative immunoblots of the synaptic proteins BDNF, PSD-95, GluA1, and vGluT1 with various treatments. (D–G) Quantification of the expression of synaptic proteins BDNF (D), PSD-95 (E), GluA1 (F), and vGluT1 (G). The expression level is expressed as a percentage of the integrated density obtained from the control group. Bars represent the mean ± SEM (n = 4). * p < 0.05, ** p < 0.01 by one-way ANOVA followed by post hoc tests.
Mouse mPFC and hippocampal slices were prepared as previously described. Briefly, mice were deeply anesthetized with 4% pentobarbital sodium (Sigma-Aldrich, Saint Louis, MI, USA), and perfused transcardially with PBS, followed by 4% phosphate-buffered paraformaldehyde. […]

[7] = tested on: BDNF, PSD-95, GluA1, and vGluT1; assay: Immunoblot of synaptic proteins in hippocampus of CUMS mice; format: in vivo, mouse; details: same dosage as fluoxetine (10 mg/kg i.p.)
From the text: as §2
Synaptic proteins were extracted from mPFC or hippocampus tissues using RIPA lysis buffer, respectively. Expression of the indicated proteins under various treatments was then analyzed by immunoblotting, as previously reported. […] Quantification of immunoreactive protein bands was performed using Image J v1.53u, and GAPDH was used as an internal reference to normalize expression levels of those proteins, respectively.

[8] = tested on: CUMS mice; details: all tested dosages, i.p.
[9] = Daily body weight during drug administration; details: all tested dosages, 14-day administration, in comparison with the control group
[10] = tested on: 5-HT1A receptor; design: method as in PMID 27508501; details: higher potency than its inhibition of SERT activity; cited from earlier work
[11] = design: method as in PMID 21869687, PMID 25500685; details: clinically observed; cited from earlier work

| SMILES | CUMS-induced increase in latency to food in NSFT [1] | CUMS-induced increase in immobility in FST [2] | CUMS-induced increase in immobility in TST [3] | home cage food consumption [4] | CUMS-induced decrease in expression of c-Fos in mPFC [5] | CUMS-induced decrease in expression of c-Fos in the hippocampus [6] | CUMS-induced decrease in expression of synaptic proteins in the hippocampus [7] | fatality rate [8] | daily body weight changes [9] | action at 5-HT1A receptor [10] | sexual dysfunction [11] | weight gain [11] |
| --- | --- | --- | --- | --- | --- | --- | --- | --- | --- | --- | --- | --- |
| CNCCC(Oc1ccc(C(F)(F)F)cc1)c1ccccc1 (stereo not drawn) [fluoxetine, reference compound] | remarkably alleviated | remarkably alleviated | remarkably alleviated | little effect | reversed | effectively alleviate | effectively alleviate | zero fatality rate | little effect | – | – | – |
| N#Cc1ccc2[nH]cc(CCCCN3CCN(c4ccc5oc(C(N)=O)cc5c4)CC3)c2c1 [vilazodone] | – | – | – | – | – | – | – | – | – | partial agonist | not associated with sexual dysfunction | reduce weight gain |
